In patent US20230255934A1, “NURR1 RECEPTOR MODULATORS AND USES THEREOF” (The Regents of the University of California, priority 2020, published 2023):

Tests used:
[1] = biological target: T1, full-length Nurr1 (NBRE response element) (Mus musculus, UniProt Q06219); experiment: Full-length Nurr1 NBRE luciferase reporter assay in MN9D cells; assay type: cell-based; settings: 6 h treatment
T1 construct: a cell line derived from dopaminergic neurons which endogenously expresses full length Nurr1 and its target genes; endogenous in cells; host or cells: MN9D TET-ON cells
T1 sequence (Q06219 whole entry): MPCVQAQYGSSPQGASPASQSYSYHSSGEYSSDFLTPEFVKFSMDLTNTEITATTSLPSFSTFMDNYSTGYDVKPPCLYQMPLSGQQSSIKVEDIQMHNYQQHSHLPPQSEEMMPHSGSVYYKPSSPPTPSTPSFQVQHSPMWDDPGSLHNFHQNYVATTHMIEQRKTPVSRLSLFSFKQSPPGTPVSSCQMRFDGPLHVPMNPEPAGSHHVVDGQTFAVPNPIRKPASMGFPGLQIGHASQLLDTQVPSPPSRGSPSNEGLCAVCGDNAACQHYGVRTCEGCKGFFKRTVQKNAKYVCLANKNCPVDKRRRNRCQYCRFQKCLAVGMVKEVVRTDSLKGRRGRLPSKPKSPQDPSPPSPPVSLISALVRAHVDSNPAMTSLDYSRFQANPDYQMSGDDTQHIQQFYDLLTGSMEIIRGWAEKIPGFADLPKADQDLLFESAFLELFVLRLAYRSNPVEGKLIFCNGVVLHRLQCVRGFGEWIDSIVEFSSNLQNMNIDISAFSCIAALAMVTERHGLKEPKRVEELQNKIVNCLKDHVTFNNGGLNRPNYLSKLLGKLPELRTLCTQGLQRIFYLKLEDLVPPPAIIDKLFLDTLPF
Procedure: Luciferase Reporter Assays. These assays were executed using standard protocols. MN9D TET-ON cells (P5) were grown for 60-72 h (see above) before being seeded at 1-10^5 cell/well in 24-well plate in DMEM/F12+5% TET-ON approved FBS 3 h before transfection. Cells were transfected using Lipofectamine 2000 (Invitrogen) and plasmid DNAs according to manufacturer's instructions. Lipofectamine/DNA complexes were prepared in Opti-Mem medium (Gibco) and incubated with cells overnight. The Nurr1-LBD_Gal4-DBD expressing plasmid was prepared by subcloning the Nurr1 LBD fragment into […] plasmid (Clontech) containing GAL4 DBD. The reporter plasmid pGL4.35 (luc2P/9XGAL4 UAS/Hygro) Vector (Promega) contains nine repeats of GAL4 UAS (Upstream Activator Sequence) and drives transcription of the luciferase reporter gene luc2P in response to binding of Nurr-LBD_Gal4-DBD chimeric protein. The pRL-null (Promega) plasmid expressing renilla luciferase was used as an internal control. […] Alternatively, cells were co-transfected with the reporter plasmid NBREx3-POMC-Luc containing three copies of the NBRE sequence ([NT] ID NO:23)) subcloned into the pXP1-luc plasmid containing the minimal (positions -34 to +63) POMC promoter as described previously^7, and the pRL-null plasmid. […] Transfected cells were treated with increasing concentrations of 5-chloroindole or vehicle only for 6 h, after which time the media was aspirated and luciferase activity was measured. Cells from each well were incubated for 15 min with 220 μL/well of Dual-Glo® Luciferase Reagent (Promega) at room temperature upon rotation on the orbital shaker. […] Resulting solutions were transferred to a white opaque 96-well plate (65 μL/well; 3 wells/sample) and firefly luciferase activity was measured using Veritas Microplate Luminometer (Turner BioSystems, Sunnyvale, Calif.). […] Renilla luciferase activity was measured after 20 min of incubation of the plate inside the luminometer. Experimental values are expressed as the average of firefly/renilla luciferase activity±standard deviation (for three independent biological replicates). […]

th and vmat2 expression = settings: zebrafish; cited from earlier work
[2] = biological target: Nurr1 ligand binding domain (LBD) (Homo sapiens, UniProt P43354); settings: non-canonical ligand binding pocket, Cys566; cited from earlier work
Nurr1 ligand binding domain (LBD), sequence (P43354 360-595 limits assumed): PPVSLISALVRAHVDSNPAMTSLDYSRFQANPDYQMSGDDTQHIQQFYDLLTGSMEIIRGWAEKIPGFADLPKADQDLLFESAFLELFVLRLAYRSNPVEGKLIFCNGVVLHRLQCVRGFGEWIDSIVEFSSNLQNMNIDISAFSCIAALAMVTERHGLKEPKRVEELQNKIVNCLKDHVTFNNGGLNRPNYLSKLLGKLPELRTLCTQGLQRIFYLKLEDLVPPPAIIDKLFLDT

Row | Structure (SMILES) | Luciferase production, full-length Nurr1 NBRE reporter [1] | Expression of th and vmat2 (th and vmat2 expression) | Binding to the Nurr1 LBD (in words) [2]
1 | N#Cc1ccc2[nH]ccc2c1 [5-cyanoindole, reference compound] | perform as expected |  | 
2 | Oc1cc2cc[nH]c2cc1O [DHI, 5,6-dihydroxyindole] |  | stimulates the expression of th and vmat2 | forming a reversible covalent adduct with the side chain of Cys566
3 | CCN(CC)Cc1cc(Nc2ccnc3cc(Cl)ccc23)ccc1O [amodiaquine, reference compound] | perform as expected |  | 
